# “And” between values parts separate entries of the source, which are not always exact repeats. Identical values can stand only once. Inconclusive results and toxic doses are left out.
# Tested on: L1210 leukemia ip in BDF1 mice, survival T/C
# Test: NCI In Vivo Anticancer Drug Screen. Data for tumor model L1210 Leukemia (intraperitoneal) in B6D2F1 (BDF1) mice
# Details: endpoint: mean survival time, higher = longer survival
# Summary of the method: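 Tumor cells were implanted, animals were treated, and survival was followed. The result divides the treated measurement by the vehicle-control measurement.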
# [1] = dose: 100.0 mg/kg/injection, schedule: Q04DX003 (ip), vehicle: saline
# [2] = dose: 200.0 mg/kg/injection, schedule: Q04DX003 (ip), vehicle: saline
# [3] = dose: 400.0 mg/kg/injection, schedule: Q04DX003 (ip), vehicle: saline
# [4] = dose: 50.0 mg/kg/injection, schedule: Q01DX001 (ip), vehicle: saline
# [5] = dose: 100.0 mg/kg/injection, schedule: Q01DX001 (ip), vehicle: saline
# [6] = dose: 200.0 mg/kg/injection, schedule: Q01DX001 (ip), vehicle: saline
# [7] = dose: 400.0 mg/kg/injection, schedule: Q01DX001 (ip), vehicle: saline
# [8] = dose: 25.0 mg/kg/injection, schedule: Q01DX001 (ip), vehicle: saline with Tween-80
# [9] = dose: 50.0 mg/kg/injection, schedule: Q01DX001 (ip), vehicle: saline with Tween-80
# [10] = dose: 100.0 mg/kg/injection, schedule: Q01DX009 (ip), vehicle: Klucel (hydroxypropylcellulose) (HPC)
# [11] = dose: 200.0 mg/kg/injection, schedule: Q01DX009 (ip), vehicle: Klucel (hydroxypropylcellulose) (HPC)
# [12] = dose: 400.0 mg/kg/injection, schedule: Q01DX009 (ip), vehicle: Klucel (hydroxypropylcellulose) (HPC)
# [13] = dose: 75.0 mg/kg/injection, schedule: Q01DX001 (ip), vehicle: carboxymethylcellulose (CMC)
# [14] = dose: 150.0 mg/kg/injection, schedule: Q01DX001 (ip), vehicle: carboxymethylcellulose (CMC)
# [15] = dose: 100.0 mg/kg/injection, schedule: Q04DX002 (ip), vehicle: Klucel (hydroxypropylcellulose) (HPC)
# [16] = dose: 200.0 mg/kg/injection, schedule: Q04DX002 (ip), vehicle: Klucel (hydroxypropylcellulose) (HPC)
# [17] = dose: 400.0 mg/kg/injection, schedule: Q04DX002 (ip), vehicle: Klucel (hydroxypropylcellulose) (HPC)
# [18] = dose: 100.0 mg/kg/injection, schedule: Q04DX003 (ip), vehicle: saline with Tween-80
# [19] = dose: 200.0 mg/kg/injection, schedule: Q04DX003 (ip), vehicle: saline with Tween-80
smiles,measurement,setting,value
CC(N)(COC(=O)c1ccccc1)C(=O)O (stereo unspecified),T/C,[1],107 % of control
same,T/C,[2],96 % of control
same,T/C,[3],98 % of control
C=COC(N)=O,T/C,"dose: 33.0 mg/kg/injection, schedule: Q01DX001 (ip), vehicle: saline",116 % of control
same,T/C,[4],117 % of control
same,T/C,"dose: 75.0 mg/kg/injection, schedule: Q01DX001 (ip), vehicle: saline",121 % of control
same,T/C,"dose: 113.0 mg/kg/injection, schedule: Q01DX001 (ip), vehicle: saline",111 % of control
CN(C)N=Nc1nn(C2CCCO2)cc1C(N)=O (stereo unspecified),T/C,"dose: 100.0 mg/kg/injection, schedule: Q01DX005 (ip), vehicle: saline",150 % of control
CCC(C#N)(CC)c1ccccc1,T/C,[4],113 % of control
same,T/C,[5],107 % of control
same,T/C,[6],89 % of control
same,T/C,[7],101 % of control
CC(=O)CC(C)=Nc1ccc([N+](=O)[O-])cc1.CC(=O)CC(C)=Nc1ccc([N+](=O)[O-])cc1.[Cu],T/C,"dose: 12.5 mg/kg/injection, schedule: Q01DX001 (ip), vehicle: saline with Tween-80",93 % of control
same,T/C,[8],88 % of control
same,T/C,[9],91 % of control
C=C1C(=O)OC2C1C(O)C(OC(=O)/C(C)=C\C)C(C)=C1CC3OC3(C)C12 (stereo unspecified),T/C,[8],94 % of control
same,T/C,[9],105 % of control
COc1ccc(Cl)cc1NC(=O)NC(Cc1ccccc1)c1ccccc1 (stereo unspecified),T/C,[10],102 % of control
same,T/C,"dose: 100.0 mg/kg/injection, schedule: Q04DX003 (ip), vehicle: Klucel (hydroxypropylcellulose) (HPC)",101 % of control
same,T/C,[11],100 % of control
same,T/C,"dose: 200.0 mg/kg/injection, schedule: Q04DX003 (ip), vehicle: Klucel (hydroxypropylcellulose) (HPC)",103 % of control
same,T/C,[12],105 % of control
same,T/C,"dose: 400.0 mg/kg/injection, schedule: Q04DX003 (ip), vehicle: Klucel (hydroxypropylcellulose) (HPC)",103 % of control
O=[N+]([O-])c1cc2c(c([N+](=O)[O-])c1)Nc1cc(Cl)ccc1O2,T/C,[10],95 % of control
same,T/C,[11],96 % of control
same,T/C,[12],96 % of control
O=[N+]([O-])c1ccc(OCc2ccc(S(=O)(=O)F)cc2)c(Cl)c1,T/C,"dose: 100.0 mg/kg/injection, schedule: Q04DX003 (ip), vehicle: other",97 % of control
same,T/C,"dose: 200.0 mg/kg/injection, schedule: Q04DX003 (ip), vehicle: other",97 % of control
same,T/C,"dose: 400.0 mg/kg/injection, schedule: Q04DX003 (ip), vehicle: other",92 % of control
O=c1[nH]nc(-c2ccc3c(c2)Cc2ccccc2-3)c2ccccc12,T/C,"dose: 100.0 mg/kg/injection, schedule: Q01DX001 (ip), vehicle: carboxymethylcellulose (CMC)",100 % of control
same,T/C,"dose: 200.0 mg/kg/injection, schedule: Q01DX001 (ip), vehicle: carboxymethylcellulose (CMC)",94 % of control
same,T/C,"dose: 400.0 mg/kg/injection, schedule: Q01DX001 (ip), vehicle: carboxymethylcellulose (CMC)",97 % of control
Oc1cc(CN2CCCC2)c(O)cc1CN1CCCC1,T/C,[13],111 % of control
same,T/C,[14],105 % of control
Cc1nc2ncnc(Cl)c2[nH]1,T/C,[5],103 % of control
same,T/C,[6],106 % of control
same,T/C,[7],100 % of control
COC(=N)Cc1ccccc1,T/C,"dose: 75.0 mg/kg/injection, schedule: Q01DX009 (ip), vehicle: saline with Tween-80",100 % of control
same,T/C,"dose: 150.0 mg/kg/injection, schedule: Q01DX009 (ip), vehicle: saline with Tween-80",101 % of control
same,T/C,"dose: 300.0 mg/kg/injection, schedule: Q01DX009 (ip), vehicle: saline with Tween-80",101 % of control
O=C(NC(=S)Nc1ccccc1)c1cccc(Br)c1,T/C,[13],90 % of control
same,T/C,[14],88 % of control
same,T/C,"dose: 300.0 mg/kg/injection, schedule: Q01DX001 (ip), vehicle: carboxymethylcellulose (CMC)",96 % of control
CSc1nc(Cl)cc(N2CC2)n1,T/C,"dose: 0.39 mg/kg/injection, schedule: Q01DX009 (ip), vehicle: saline",106 % of control
same,T/C,"dose: 0.78 mg/kg/injection, schedule: Q01DX009 (ip), vehicle: saline",97 % of control
same,T/C,"dose: 0.78 mg/kg/injection, schedule: Q04DX003 (ip), vehicle: saline",107 % of control
same,T/C,"dose: 1.56 mg/kg/injection, schedule: Q01DX001 (ip), vehicle: saline",101 % of control
same,T/C,"dose: 1.56 mg/kg/injection, schedule: Q04DX003 (ip), vehicle: saline",101 % of control
same,T/C,"dose: 3.12 mg/kg/injection, schedule: Q01DX001 (ip), vehicle: saline",101 % of control
same,T/C,"dose: 59.0 mg/kg/injection, schedule: Q01DX Z (ip), vehicle: methylcellulose (MC)",94 % of control
same,T/C,"dose: 88.0 mg/kg/injection, schedule: Q01DX Z (ip), vehicle: methylcellulose (MC)",93 % of control
N#C/C(=C\c1cccc([N+](=O)[O-])c1)c1ccccc1,T/C,"dose: 100.0 mg/kg/injection, schedule: Q01DX001 (ip), vehicle: Klucel (hydroxypropylcellulose) (HPC)",97 % of control
same,T/C,"dose: 200.0 mg/kg/injection, schedule: Q01DX001 (ip), vehicle: Klucel (hydroxypropylcellulose) (HPC)",101 % of control
same,T/C,"dose: 400.0 mg/kg/injection, schedule: Q01DX001 (ip), vehicle: Klucel (hydroxypropylcellulose) (HPC)",94 % of control
O=C(Nc1cccc(F)c1)Sc1ccc(Cl)cc1,T/C,"dose: 25.0 mg/kg/injection, schedule: Q01DX009 (ip), vehicle: Klucel (hydroxypropylcellulose) (HPC)",98 % of control
same,T/C,"dose: 50.0 mg/kg/injection, schedule: Q01DX009 (ip), vehicle: Klucel (hydroxypropylcellulose) (HPC)",108 % of control
same,T/C,[10],105 % of control and 106 % of control and 112 % of control
same,T/C,[15],95 % of control
same,T/C,[16],98 % of control
same,T/C,[12],86 % of control
same,T/C,[17],109 % of control
O=C1CSC(=S)N1c1ccc2c(c1)OCO2,T/C,[1],94 % of control
same,T/C,[2],90 % of control
same,T/C,[3],95 % of control
O=C(C[n+]1cccc(/C=N\O)c1)c1ccc(-c2ccc(C(=O)C[n+]3cccc(/C=N\O)c3)cc2)cc1,T/C,"dose: 1.5 mg/kg/injection, schedule: Q01DX009 (ip), vehicle: Klucel (hydroxypropylcellulose) (HPC)",97 % of control
same,T/C,"dose: 2.5 mg/kg/injection, schedule: Q01DX009 (ip), vehicle: Klucel (hydroxypropylcellulose) (HPC)",102 % of control
same,T/C,"dose: 3.0 mg/kg/injection, schedule: Q01DX009 (ip), vehicle: Klucel (hydroxypropylcellulose) (HPC)",97 % of control
same,T/C,"dose: 4.0 mg/kg/injection, schedule: Q01DX009 (ip), vehicle: Klucel (hydroxypropylcellulose) (HPC)",97 % of control
same,T/C,"dose: 6.0 mg/kg/injection, schedule: Q01DX009 (ip), vehicle: Klucel (hydroxypropylcellulose) (HPC)",94 % of control and 102 % of control
same,T/C,"dose: 9.0 mg/kg/injection, schedule: Q01DX009 (ip), vehicle: Klucel (hydroxypropylcellulose) (HPC)",92 % of control
same,T/C,"dose: 12.0 mg/kg/injection, schedule: Q01DX009 (ip), vehicle: Klucel (hydroxypropylcellulose) (HPC)",98 % of control
same,T/C,"dose: 12.5 mg/kg/injection, schedule: Q01DX009 (ip), vehicle: Klucel (hydroxypropylcellulose) (HPC)",111 % of control
Cc1cccc2ccccc12,T/C,[15],107 % of control
same,T/C,[16],107 % of control
same,T/C,[17],107 % of control
O=C(O)c1ccccc1Nc1cccc(C(F)(F)F)c1,T/C,[18],104 % of control
same,T/C,[19],104 % of control
same,T/C,"dose: 400.0 mg/kg/injection, schedule: Q04DX003 (ip), vehicle: saline with Tween-80",104 % of control
CNS(=O)(=O)c1c(C)cccc1CC(=O)c1ccccc1,T/C,"dose: 100.0 mg/kg/injection, schedule: Q01DX001 (ip), vehicle: steriod suspending solution",96 % of control
same,T/C,"dose: 400.0 mg/kg/injection, schedule: Q01DX001 (ip), vehicle: steriod suspending solution",94 % of control
CCOC(=O)C(CCc1cc2ccccc2[nH]1)(C(=O)OCC)N1C(=O)c2ccccc2C1=O,T/C,[10],94 % of control
same,T/C,[11],89 % of control
same,T/C,[12],89 % of control
O=C1CSC(=S)N1c1ccc(Cl)c(Cl)c1,T/C,"dose: 50.0 mg/kg/injection, schedule: Q04DX003 (ip), vehicle: saline with Tween-80",96 % of control
same,T/C,[18],101 % of control
same,T/C,[19],104 % of control

# Source: PubChem BioAssay AID248 (DTP/NCI, 2004)
